Reference: patent EP0548798A1, “Antiviral agent” (SANWA KAGAKU KENKYUSHO CO., LTD., priority 1991, dated 1993)
Like-named read-outs stand apart in the source and are kept apart here.

Legend:
[1] = system: herpes simplex virus type 1 (Miyama strain); test: Antiviral activity against HSV-1 in vitro, inhibition of virus-induced CPE in GMK cells (Test Example 2); format: cell-based, HSV-1 (Miyama strain); settings: 0.5% fetal bovine serum
Procedure: (§1) Confluent GMK cells (derived from green monkey kidney) in 96-well plates were infected with HSV-1 (Miyama strain) in the presence of various concentrations of test compounds. After incubation, virus-induced cytopathic effect (CPE), inhibitory effect of CPE by the test compound and cytotoxicity were microscopically observed. The virus titer (TCID₅₀) was determined from CPE of virus infected culture. Ancivirus effects of test compounds were calculated from TCID₅₀ values of test compound treated and control cultures and represented by ΔTCID₅₀(log₁₀). Test compounds were dissolved in MEM medium, ethanol or DMSO to 10 mg/ml, and diluted with MEM medium supplemented with 0.5% fetal bovine serum.

GMK cells [2] = test: Cytotoxicity observed microscopically in GMK cells (Test Example 2); format: cell-based, green monkey; design: key: -: no cytotoxicity; ±: slight cytotoxicity; +: cytotoxicity with observable antiviral effect; settings: in parentheses
Procedure: as §1
In Table 4, parentheses indicate the cytotoxicity of these compounds. (-), (±) and (+) indicate no cytotoxicity, slight cytotoxicity and cytotoxicity with observable antiviral effect, respectively.

[3] = system: herpes simplex virus type 1 (Miyama strain); test: Antiviral activity against HSV-1 in vitro, inhibition of virus-induced CPE in GMK cells (Test Example 1); format: cell-based, HSV-1 (Miyama strain)
Procedure: as §1, with “After incubation, virus-induced cytopathic effect (CPE), inhibitory effect of CPE by the test compound and cytotoxicity were microscopically observed.” left out, “Antivirus” for “Ancivirus”, “1%” for “0.5%”, “bovineserum.” for “bovine serum.”

GMK cells [4] = test: Cytotoxicity observed microscopically in GMK cells (Test Example 1); format: cell-based, green monkey
Procedure: as §1, with “After incubation, virus-induced cytopathic effect (CPE), inhibitory effect of CPE by the test compound and cytotoxicity were microscopically observed.” left out, “Antivirus” for “Ancivirus”, “1%” for “0.5%”, “bovineserum.” for “bovine serum.”
In Table 1, parentheses indicate the cytotoxicity of these compounds. (-) and (±) indicate no cytotoxicity and slight cytotoxicity, respectively.

HSV-1 (Miyama strain) = test: Anti HSV-1 activity in vivo, intraperitoneally infected mice; design: species or system Male BALB/c mice; settings: 322 PFU (10LD₅₀) HSV-1
Procedure: Male BALB/c mice (5 weeks of age) were intraperitoneally infected with 322 PFU (plaque forming unit, 10LD₅₀) of HSV-1 (Miyama strain). Twenty one days later, survival ratio and mean survival days were evaluated. Test compounds were dispersed in 5% arabic gum/physiological saline, and intraperitoneally administered at 10 mg and 20 mg/kg. Treatment began just after virus inoculation and continued for 5 days.

MT-4 cells = test: Minimum cytotoxic concentration in MT-4 cells; format: cell-based, human; settings: MT-4 cells; in parentheses
Procedure: MT-4 cells (lymphoma derived from human T cell leukemia) in 96-well plate were infected with […] in the presence of various concentrations of test compounds. After incubation, inhibitory effect of HIV-induced CPE by the test compounds and cytotoxicity were microscopically observed. […] TABLE 6 In Table 6, parentheses indicate the minimum cytotoxic concentration of test compounds.

HIV = test: Inhibition of HIV-induced cytopathogenicity in MT-4 cells; format: cell-based; settings: Human immunodeficiency virus 1; MT-4 cells; minimum inhibitory concentration; read-out: Anti-HIV Activity (MIC, µg/ml)
Procedure: MT-4 cells (lymphoma derived from human T cell leukemia) in 96-well plate were infected with […] in the presence of various concentrations of test compounds. After incubation, inhibitory effect of HIV-induced CPE by the test compounds and cytotoxicity were microscopically observed. […]
Further, since the compounds of the present invention have a chemical structure different from the conventional antiviral substances, it is useful for the prevention or treatment of the infectious diseases caused by viruses resistant to the conventional antiviral substances.

[5] = Human alphaherpesvirus 1, 10 µg/ml, GMK cells, 1% fetal bovine serum, read-out: Antiviral Activity (ΔTCID₅₀(log₁₀))
[6] = 10 µg/ml, GMK cells, in parentheses
[7] = 10 µg/ml, GMK cells, 1% fetal bovine serum
[8] = 10 mg/kg intraperitoneally for 5 days
[9] = 20 mg/kg intraperitoneally for 5 days

Compound | Antiviral Activity (ΔTCID₅₀(log₁₀)) ([1]; 10 µg/ml) [log₁₀] | cytotoxicity (GMK cells [2]; 10 µg/ml) | log reduction at 10 µg/mL [3, 5] | cytotoxicity (GMK cells [4]; [6]) | other results
2-[4-(2-Trifluoromethylphenyl)-1-piperazinyl]-7-(2-deoxy-α-and β-D-ribofuranosyl)hypoxanthine and 2-[4-(2-Trifluromethylphenyl)-1-piperazinyl]-9-(2-deoxy-α- and β-D-ribofuranosyl)hypoxanthine [Compound of Example 21] | 1.00 | - |  |  | 
O=C(CN1CCCC1=O)N1CCN(c2ccccc2Cl)CC1 [Compound of Example 1, 1-(2-Chlorophenyl)-4-(2-pyrrolidon-1-yl)acetylpiperazine] |  |  | 0.17 | - | 
CC(=O)Oc1ccccc1C(=O)N1CCN(c2ccccc2Cl)CC1 [Compound of Example 2, 1-(2-Acetoxybenzoyl)-4-(2-chlorophenyl)piperazine] |  |  | 0.5 | - | 
O=C(c1ccccc1O)N1CCN(c2ccccc2Cl)CC1 [Compound of Example 3, 1-(2-Chlorophenyl)-4-(2-hydroxybenzoyl)piperazine] |  |  | 0.83 | - | 
O=C(CC12CCCN1CCC2)N1CCN(c2ccccc2Cl)CC1 [Compound of Example 4, 1-(1-Azabicyclo[3.3.0]octan-5-yl)acetyl-4-(2-chlorophenyl)piperazine] |  |  |  |  | Antiviral Activity (ΔTCID₅₀(log₁₀)) [3, 7]: 0.66 log₁₀
CCn1cc(C(=O)O)c(=O)c2cc(F)c(N3CCN(c4ccccc4Cl)CC3)cc21 [Compound of Example 5, 7-[4-(2-Chlorophenyl)-1-piperazinyl]-1-ethyl-6-fluoro-1,4-dihydro-4-oxoquinoline-3-carboxylic acid] |  |  | > 2.83 | ± | log reduction at 5 µg/mL ([3]; Human alphaherpesvirus 1, 5 µg/ml, GMK cells, 1% fetal bovine serum, read-out: Antiviral Activity (ΔTCID₅₀(log₁₀))): > 2.83; cytotoxicity (GMK cells [4]; 5 µg/ml, GMK cells, in parentheses): -; Mean Survival Days (HSV-1 (Miyama strain); [8]): 16.8 ± 1.6 days; Survival Ratio at 21 days (%) (HSV-1 (Miyama strain); [8]): 40%; Mean Survival Days (HSV-1 (Miyama strain); [9]): 18.7 ± 1.2 days; Survival Ratio at 21 days (%) (HSV-1 (Miyama strain); [9]): 70%
CS(=O)(=O)N1CCN(c2ccccc2Cl)CC1 [Compound of Example 6, 1-(2-Chlorophenyl)-4-methylsulfonylpiperazine] |  |  | 0.17 | - | 
CCCCCCCCCCCCCCCCCC(=O)N1CCN(c2ccccc2Cl)CC1 [Compound of Example 7, 1-(2-Chlorophenyl)-4-octadecanoylpiperazine] |  |  | 0.17 | - | 
C[C@H](CCC(=O)N1CCN(c2ccccc2Cl)CC1)[C@H]1CC[C@H]2[C@@H]3CC[C@@H]4CCCC[C@]4(C)[C@H]3CC[C@]12C [Compound of Example 10, 1-(2-Chlorophenyl)-4-(5β-cholan-24-oyl)piperazine] |  |  | 0.17 |  | cytotoxicity (GMK cells [4]; green monkey, 10 µg/ml): -
NS(=O)(=O)c1ccc(N2CCN(c3ccccc3Cl)CC2)cc1 [Compound of Example 11, 1-(4-Aminosulfonylphenyl)-4-(2-chlorophenyl)piperazine] |  |  | 1.5 | - | 
CCN1CCN(c2ccccc2Cl)CC1 [Compound of Example 12, 1-(2-Chlorophenyl)-4-ethylpiperazine] |  |  |  | - | log reduction at 10 µg/mL ([3]; Human alphaherpesvirus 1, GMK, read-out: Antiviral Activity (ΔTCID₅₀(log₁₀))): 0.33
CC(=O)N1CCN(c2ccccc2Cl)CC1 [Compound of Example 13, 1-Acetyl-4-(2-chlorophenyl)piperazine] |  |  | 0 | - | 
CC1(C)[C@@H](O)CC[C@]2(C)[C@H]3CC=C4[C@@H]5C[C@@](C)(C(=O)N6CCN(c7ccccc7Cl)CC6)CC[C@]5(C)CC[C@@]4(C)[C@]3(C)CC[C@@H]12 [Compound of Example 15, 1-(3β-Hydroxy-18β-olean-12-en-30-oyl)-4-(2-chlorophenyl)piperazine] |  |  |  |  | Antiviral Activity (ΔTCID₅₀(log₁₀)) [3, 7]: > 2.00 log₁₀
CCCCCCCC(=O)N1CCN(c2ccccc2C(F)(F)F)CC1 [Compound of Example 16, 1-(2-Trifluoromethylphenyl)-4-octanoylpiperazine] | > 3.00 | + |  |  | Antiviral Activity (ΔTCID₅₀(log₁₀)) ([1]; 5 µg/ml): 2.16 log₁₀; minimum cytotoxic concentration (MT-4 cells): 125 µg/mL; MIC (HIV): > 63 µg/mL; cytotoxicity (GMK cells [2]; 5 µg/ml): -
CCCCC/C=C\C/C=C\CCCCCCCC(=O)N1CCN(c2ccccc2C(F)(F)F)CC1 [Compound of Example 17, 1-(2-Trifluoromethylphenyl)-4-[(Z,Z)-9,12-octadecadienoyl]piperazine] | 1.56 | - |  |  | 
CC1(C)[C@@H](O)CC[C@]2(C)[C@H]3CC=C4[C@@H]5C[C@@](C)(C(=O)N6CCN(c7ccccc7C(F)(F)F)CC6)CC[C@]5(C)CC[C@@]4(C)[C@]3(C)CC[C@@H]12 [Compound of Example 18, 4-(2-Trifluoromethylphenyl)-1-(3β-hydroxy-18β-olean-12-en-30-oyl)piperazine] | 1.67 | - |  |  | 
O=c1[nH]c(N2CCN(c3ccccc3C(F)(F)F)CC2)nc2nc[nH]c12 [Compound of Example 20, 2-[4-(2-Trifluoromethylphenyl)-1-piperazinyl]hypoxanthine] | > 2.83 | ± |  |  | Antiviral Activity (ΔTCID₅₀(log₁₀)) ([1]; 5 µg/ml): 1.66 log₁₀; cytotoxicity (GMK cells [2]; 5 µg/ml): -
COc1ccc2[nH]c(C(=O)N3CCN(c4ccccc4C(F)(F)F)CC3)cc2c1 [Compound of Example 22, 1-(5-Methoxyindolyl-2-carbonyl)-4-(2-trifluoromethyl)piperazine] | 0.64 | - |  |  | 
CCn1cc(C(=O)O)c(=O)c2cc(F)c(N3CCN(c4ccccc4C(F)(F)F)CC3)cc21 [Compound of Example 23, 1-Ethyl-6-fluoro-7-[4-(2-trifluoromethylphenyl)-1-piperazinyl]-1,4-dihydro-4-oxoquinoline-3-carboxylic acid] | > 3.17 | + |  |  | Antiviral Activity (ΔTCID₅₀(log₁₀)) ([1]; 5 µg/ml): > 3.17 log₁₀; cytotoxicity (GMK cells [2]; 5 µg/ml): ±
Cc1cc(O)c2c(=O)c(C)c(-c3ccc(OC(=O)CN4CCN(c5ccccc5C(F)(F)F)CC4)cc3)oc2c1 [Compound of Example 24, 2-[4-(4-(2-Trifluoromethylphenyl)-1-piperazinylacetoxy)phenyl]-5-hydroxy-3,7-dimethyl-4H-1-benzopyran-4-one] | 0.33 | - |  |  | 
CC[C@@]12C=C(C(=O)NCCN3CCN(c4ccccc4OC)CC3)n3c4c(c5ccccc53)CCN(CCC1)[C@H]42 [Compound of Example 25, N-[4-(2-Methoxyphenyl)piperazine-1-yl]ethyl-(3α,16α)-eburunamenine-14-caboxamide] | 2.27 | - |  |  | Antiviral Activity (ΔTCID₅₀(log₁₀)) ([1]; 5 µg/ml): 0.67 log₁₀; cytotoxicity (GMK cells [2]; 5 µg/ml): -
CC[C@@]12C=C(C(=O)NCCN3CCN(c4ccccc4Cl)CC3)n3c4c(c5ccccc53)CCN(CCC1)[C@H]42 [Compound of Example 26, N-[4-(2-Chlorophenyl)piperazine-1-yl]ethyl-(3α,16α)-eburunamenine-14-caboxamide] | > 3.17 | + |  |  | Antiviral Activity (ΔTCID₅₀(log₁₀)) ([1]; 5 µg/ml): 2.00 log₁₀; cytotoxicity (GMK cells [2]; 5 µg/ml): -
